Like-named read-outs stand apart in the source and are kept apart here.
Key:
[1] = system: consortium of bacteria: mixture of Pseudomonas aeruginosa, Klebsiella pneumoniae, Staphylococcus aureus, and Bacillus subtilis; test: Growth inhibition assay (microtiter plate-based synergy assay); format: cell-based; conditions: 24 h; for I90 value (minimum concentration in which growth of the consortium is at least 90% less than controls): single active alone
[2] = as above; format: cell-based; conditions: 24 h

CCCCn1sc2ccccc2c1=O [BBIT, N-butyl-1,2-benzisothiazolin-3-one]
% Inhibition of growth by BBIT ([1]; BBIT 6.25 mg/l alone): 32% | % Inhibition of growth by BBIT ([1]; BBIT 12.5 mg/l alone): 24% | % Inhibition of growth by BBIT ([1]; BBIT 25.0 mg/l alone): 49% | I90 value (minimum concentration in which growth of the consortium is at least 90% less than controls) [1]: 50.0 mg/L

O=c1[nH]sc2ccccc12 [BIT, 1,2-benzisothiazolin-3-one]
% Inhibition of growth by BIT ([1]; BIT 3.91 mg/l alone): 17% | % Inhibition of growth by BIT ([1]; BIT 7.81 mg/l alone): 46% | I90 value (minimum concentration in which growth of the consortium is at least 90% less than controls) [1]: 15.63 mg/L

Cn1sc(Cl)cc1=O [CMIT, 5-chloro-2-methyl-4-isothiazolin-3-one]
inhibition at 0.39 µg/mL ([2]; CMIT 0.39 mg/l alone, read-out: % Inhibition of growth by CMIT): 10% | inhibition at 0.78 µg/mL ([2]; CMIT 0.78 mg/l alone, read-out: % Inhibition of growth by CMIT): 97% | inhibition at 1.56 µg/mL ([2]; CMIT 1.56 mg/l alone, read-out: % Inhibition of growth by CMIT): 96% | inhibition at 3.13 µg/mL ([2]; CMIT 3.13 mg/l alone, read-out: % Inhibition of growth by CMIT): 98% | inhibition at 6.25 µg/mL ([2]; CMIT 6.25 mg/l alone, read-out: % Inhibition of growth by CMIT): 97% | inhibition at 12.5 µg/mL ([2]; CMIT 12.5 mg/l alone, read-out: % Inhibition of growth by CMIT): 96% | inhibition at 25 µg/mL ([2]; CMIT 25.0 mg/l alone, read-out: % Inhibition of growth by CMIT): 98% | I90 value (minimum concentration in which growth of the consortium is at least 90% less than controls) [1]: 0.78 mg/L

NC(=O)C(Br)(Br)C(N)=O [DBMAL, 2,2-dibromomalonamide]
inhibition at 0.39 µg/mL ([2]; Table 2, DBMAL 0.39 mg/l alone, read-out: % Inhibition of growth by DBMAL): 11% | inhibition at 0.78 µg/mL ([2]; Table 2, DBMAL 0.78 mg/l alone, read-out: % Inhibition of growth by DBMAL): 13% | inhibition at 1.56 µg/mL ([2]; Table 2, DBMAL 1.56 mg/l alone, read-out: % Inhibition of growth by DBMAL): 15% | inhibition at 3.13 µg/mL ([2]; Table 2, DBMAL 3.13 mg/l alone, read-out: % Inhibition of growth by DBMAL): 23% | inhibition at 6.25 µg/mL ([2]; Table 2, DBMAL 6.25 mg/l alone, read-out: % Inhibition of growth by DBMAL): 0% | inhibition at 12.5 µg/mL ([2]; Table 2, DBMAL 12.5 mg/l alone, read-out: % Inhibition of growth by DBMAL): 98% | inhibition at 0.39 µg/mL ([2]; Table 4, DBMAL 0.39 mg/l alone, read-out: % Inhibition of growth by DBMAL): 6% | inhibition at 0.78 µg/mL ([2]; Table 4, DBMAL 0.78 mg/l alone, read-out: % Inhibition of growth by DBMAL): 2% | inhibition at 1.56 µg/mL ([2]; Table 4, DBMAL 1.56 mg/l alone, read-out: % Inhibition of growth by DBMAL): 1% | inhibition at 6.25 µg/mL ([2]; Table 4, DBMAL 6.25 mg/l alone, read-out: % Inhibition of growth by DBMAL): 23% | inhibition at 25 µg/mL ([2]; Table 4, DBMAL 25.0 mg/l alone, read-out: % Inhibition of growth by DBMAL): 100% | inhibition at 0.39 µg/mL ([2]; Table 6, DBMAL 0.39 mg/l alone, read-out: % Inhibition of growth by DBMAL): 0% | inhibition at 0.78 µg/mL ([2]; Table 6, DBMAL 0.78 mg/l alone, read-out: % Inhibition of growth by DBMAL): 6% | inhibition at 3.13 µg/mL ([2]; Table 6, DBMAL 3.13 mg/l alone, read-out: % Inhibition of growth by DBMAL): 11% | inhibition at 6.25 µg/mL ([2]; Table 6, DBMAL 6.25 mg/l alone, read-out: % Inhibition of growth by DBMAL): 28% | inhibition at 12.5 µg/mL ([2]; Table 6, DBMAL 12.5 mg/l alone, read-out: % Inhibition of growth by DBMAL): 100% | inhibition at 25 µg/mL ([2]; Table 6, DBMAL 25.0 mg/l alone, read-out: % Inhibition of growth by DBMAL): 100% | inhibition at 0.39 µg/mL ([2]; Table 8, DBMAL 0.39 mg/l alone, read-out: % Inhibition of growth by DBMAL): 3% | inhibition at 0.78 µg/mL ([2]; Table 8, DBMAL 0.78 mg/l alone, read-out: % Inhibition of growth by DBMAL): 1% | inhibition at 1.56 µg/mL ([2]; Table 8, DBMAL 1.56 mg/l alone, read-out: % Inhibition of growth by DBMAL): 0% | inhibition at 3.13 µg/mL ([2]; Table 8, DBMAL 3.13 mg/l alone, read-out: % Inhibition of growth by DBMAL): 8% | inhibition at 6.25 µg/mL ([2]; Table 8, DBMAL 6.25 mg/l alone, read-out: % Inhibition of growth by DBMAL): 45% | inhibition at 12.5 µg/mL ([2]; Table 8, DBMAL 12.5 mg/l alone, read-out: % Inhibition of growth by DBMAL): 100% | inhibition at 25 µg/mL ([2]; Table 8, DBMAL 25.0 mg/l alone, read-out: % Inhibition of growth by DBMAL): 99% | inhibition at 0.39 µg/mL ([2]; Table 10, DBMAL 0.39 mg/l alone, read-out: % Inhibition of growth by DBMAL): 3% | inhibition at 0.78 µg/mL ([2]; Table 10, DBMAL 0.78 mg/l alone, read-out: % Inhibition of growth by DBMAL): 0% | inhibition at 1.56 µg/mL ([2]; Table 10, DBMAL 1.56 mg/l alone, read-out: % Inhibition of growth by DBMAL): 1% | inhibition at 3.13 µg/mL ([2]; Table 10, DBMAL 3.13 mg/l alone, read-out: % Inhibition of growth by DBMAL): 0% | inhibition at 6.25 µg/mL ([2]; Table 10, DBMAL 6.25 mg/l alone, read-out: % Inhibition of growth by DBMAL): 44% | inhibition at 12.5 µg/mL ([2]; Table 10, DBMAL 12.5 mg/l alone, read-out: % Inhibition of growth by DBMAL): 100% | inhibition at 25 µg/mL ([2]; Table 10, DBMAL 25.0 mg/l alone, read-out: % Inhibition of growth by DBMAL): 100% | inhibition at 0.39 µg/mL ([2]; Table 12, DBMAL 0.39 mg/l alone, read-out: % Inhibition of growth by DBMAL): 3% | inhibition at 0.78 µg/mL ([2]; Table 12, DBMAL 0.78 mg/l alone, read-out: % Inhibition of growth by DBMAL): 0% | inhibition at 1.56 µg/mL ([2]; Table 12, DBMAL 1.56 mg/l alone, read-out: % Inhibition of growth by DBMAL): 1% | inhibition at 3.13 µg/mL ([2]; Table 12, DBMAL 3.13 mg/l alone, read-out: % Inhibition of growth by DBMAL): 0% | inhibition at 6.25 µg/mL ([2]; Table 12, DBMAL 6.25 mg/l alone, read-out: % Inhibition of growth by DBMAL): 44% | inhibition at 12.5 µg/mL ([2]; Table 12, DBMAL 12.5 mg/l alone, read-out: % Inhibition of growth by DBMAL): 100% | inhibition at 25 µg/mL ([2]; Table 12, DBMAL 25.0 mg/l alone, read-out: % Inhibition of growth by DBMAL): 100% | inhibition at 0.39 µg/mL ([2]; Table 14, DBMAL 0.39 mg/l alone, read-out: % Inhibition of growth by DBMAL): 3% | inhibition at 0.78 µg/mL ([2]; Table 14, DBMAL 0.78 mg/l alone, read-out: % Inhibition of growth by DBMAL): 0% | inhibition at 1.56 µg/mL ([2]; Table 14, DBMAL 1.56 mg/l alone, read-out: % Inhibition of growth by DBMAL): 0% | inhibition at 3.13 µg/mL ([2]; Table 14, DBMAL 3.13 mg/l alone, read-out: % Inhibition of growth by DBMAL): 0% | inhibition at 6.25 µg/mL ([2]; Table 14, DBMAL 6.25 mg/l alone, read-out: % Inhibition of growth by DBMAL): 34% | inhibition at 12.5 µg/mL ([2]; Table 14, DBMAL 12.5 mg/l alone, read-out: % Inhibition of growth by DBMAL): 93% | inhibition at 25 µg/mL ([2]; Table 14, DBMAL 25.0 mg/l alone, read-out: % Inhibition of growth by DBMAL): 100%

Cn1sc2ccccc2c1=O [MBIT, N-methyl-1,2-benzisothiazolin-3-one]
% Inhibition of growth by MBIT ([1]; MBIT 0.78 mg/l alone): 16% | % Inhibition of growth by MBIT ([1]; MBIT 1.56 mg/l alone): 13% | % Inhibition of growth by MBIT ([1]; MBIT 6.25 mg/l alone): 26% | % Inhibition of growth by MBIT ([1]; MBIT 12.5 mg/l alone): 53% | % Inhibition of growth by MBIT ([1]; MBIT 25.0 mg/l alone): 23% | % Inhibition of growth by MBIT ([1]; MBIT 50.0 mg/l alone): 67% | I90 value (minimum concentration in which growth of the consortium is at least 90% less than controls) [1]: 100.0 mg/L

Cn1sccc1=O [MIT, 2-methyl-4-isothiazolin-3-one]
inhibition at […] ([2]; MIT 0.19 mg/l alone): 0% | inhibition at 0.39 µg/mL ([2]; MIT 0.39 mg/l alone, read-out: % Inhibition of growth by MIT): 0% | inhibition at 0.78 µg/mL ([2]; MIT 0.78 mg/l alone, read-out: % Inhibition of growth by MIT): 0% | inhibition at 1.56 µg/mL ([2]; MIT 1.56 mg/l alone, read-out: % Inhibition of growth by MIT): 6% | inhibition at 3.13 µg/mL ([2]; MIT 3.13 mg/l alone, read-out: % Inhibition of growth by MIT): 6% | inhibition at 6.25 µg/mL ([2]; MIT 6.25 mg/l alone, read-out: % Inhibition of growth by MIT): 16% | inhibition at 12.5 µg/mL ([2]; MIT 12.5 mg/l alone, read-out: % Inhibition of growth by MIT): 38% | inhibition at 25 µg/mL ([2]; MIT 25.0 mg/l alone, read-out: % Inhibition of growth by MIT): 96% | I90 value (minimum concentration in which growth of the consortium is at least 90% less than controls) [1]: 25 mg/L

CCCCCCCCn1sccc1=O [OIT, 2-n-octyl-4-isothiazolin-3-one]
inhibition at 3.91 µg/mL ([2]; OIT 3.91 mg/l alone): 0% | inhibition at 7.81 µg/mL ([2]; OIT 7.81 mg/l alone): 7% | inhibition at 15.63 µg/mL ([2]; OIT 15.63 mg/l alone): 24% | inhibition at 31.25 µg/mL ([2]; OIT 31.25 mg/l alone): 43% | inhibition at 62.5 µg/mL ([2]; OIT 62.5 mg/l alone): 64% | inhibition at 125 µg/mL ([2]; OIT 125.0 mg/l alone): 100% | inhibition at 250 µg/mL ([2]; OIT 250.0 mg/l alone): 100% | inhibition at 500 µg/mL ([2]; OIT 500.0 mg/l alone): 100% | I90 value (minimum concentration in which growth of the consortium is at least 90% less than controls) [1]: 125 mg/L

Reference: patent publication US8754130B2, “Compositions of dibromomalonamide and their use as biocides” (Dow Global Technologies LLC, priority 2009, dated 2014)
